Article PMC6384738, “Structure-Function Studies of Polymyxin B Lipononapeptides” (Molecules, 2019)
Converted amounts (≈) assume the structure as drawn. Where a SMILES comes first, the peptide text is derived from it. Bridges are numbered along the chain shown (N, C = ends). [ ]: non-standard residue; d: D form. The star is where a group is joined. Benzoyl(3-Ph) = O=C(c1cccc(-c2ccccc2)c1)*; dDab = NCC[C@@H](N)C(=O)O; hSer = N[C@@H](CCO)C(=O)O; Octanoyl = CCCCCCCC(=O)*; Dab = NCC[C@H](N)C(=O)O

What was measured:
[1] = test system: K. pneumoniae ATCC 13833; experiment: microbe, parasite or virus in culture; settings: for MIC K. pneumoniae ATCC 13833: ATCC 13833, 18 h
Method in brief: (§1)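 Broth microdilution; read-out = minimum inhibitory concentration, mg/L. Comparators: polymyxin B, colistin, vancomycin, gentamicin.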

[2] = test system: K. pneumoniae ATCC 700603; experiment: microbe, parasite or virus in culture; settings: for MIC K. pneumoniae ATCC 700603: ATCC 700603, 18 h
Method in brief: as §1

[3] = test system: K. pneumoniae BAA 2146; experiment: microbe, parasite or virus in culture; settings: for MIC K. pneumoniae BAA 2146: BAA 2146, 18 h
Method in brief: as §1

[4] = test system: P. aeruginosa ATTC 27853; experiment: microbe, parasite or virus in culture; settings: for MIC P. aeruginosa ATTC 27853: ATTC 27853, 18 h
Method in brief: as §1

[5] = test system: S. aureus ATCC 25923; experiment: microbe, parasite or virus in culture; settings: for MIC S. aureus ATCC 25923: ATCC 25923, 18 h
Method in brief: as §1

[6] = in vitro; settings: human
Method in brief: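 HK-2 cells seeded 2000 cells/well in DMEM/F12 with 10% FBS, grown 24 h, then exposed to compounds (300 µM to 2.3 µM, 2-fold series; colistin/polymyxin B 1 mM to 7.8 µM) for 24 h at 37 °C. LDH in medium read at 450 nm after 30 min; cytotoxicity % relative to 1% Triton X-100 and untreated cells.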

[7] = test system: ATCC reference strains (Escherichia coli, Klebsiella pneumoniae, A. baumannii, and P. aeruginosa)
Procedure: All compounds synthesised in this study were assessed for their minimum inhibitory concentrations (MIC, mg/L) by broth microdilution assay against five antibiotic-sensitive and resistant ATCC reference strains covering the Gram-negative ESKAPE pathogens (Escherichia coli, Klebsiella pneumoniae, A. baumannii, and P. aeruginosa) (Table 1, Table 2 and Table 3). Staphylococcus aureus was also included as a representative Gram-positive bacterial strain. […] Polymyxin B 1, colistin 2, vancomycin and gentamicin were used as positive inhibitor comparator compounds. Compounds were counter-screened against human proximal tubular epithelial cells (HK-2), using LDH release as a general indicator of cellular toxicity.

[8] = test system: A. baumannii ATCC 19606; experiment: microbe, parasite or virus in culture; settings: for MIC A. baumannii ATCC 19606: ATCC 19606, 18 h
Method in brief: as §1

[9] = test system: E. coli ATCC 25922; experiment: microbe, parasite or virus in culture; settings: for MIC E. coli ATCC 25922: ATCC 25922, 18 h
Method in brief: as §1

[10] = test system: P. aeruginosa FADDI PA070; experiment: microbe, parasite or virus in culture; settings: for MIC P. aeruginosa FADDI PA070: FADDI PA070, 18 h
Method in brief: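 Antibacterial activity: broth microdilution MIC (mg/L) against the reference isolate.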

Structure (SMILES)	MIC K. pneumoniae ATCC 13833 [1] [µg/mL]	MIC K. pneumoniae ATCC 700603 [2] [µg/mL]	MIC K. pneumoniae BAA 2146 [3] [µg/mL]	MIC P. aeruginosa ATTC 27853 [4] [µg/mL]	MIC S. aureus ATCC 25923 [5] [µg/mL]	MIC A. baumannii ATCC 19606 [8] [µg/mL]	MIC E. coli ATCC 25922 [9] [µg/mL]	MIC P. aeruginosa FADDI PA070 [10] [µg/mL]	CC50 at 24 h [6] [µM]	MIC for most strains [7] [µg/mL]	fold more active than nonapeptide 8 ([7]; MIC comparison against most strains)	MIC ([8]; Acinetobacter baumannii, ATCC19606, 18 h, read-out: MIC A. baumannii ATCC 19606) [µg/mL]	MIC ([9]; Escherichia coli, ATCC25922, 18 h, read-out: MIC E. coli ATCC 25922) [µg/mL]	MIC ([1]; Klebsiella pneumoniae, ATCC13833, 18 h, read-out: MIC K. pneumoniae ATCC 13833) [µg/mL]	MIC ([2]; Klebsiella pneumoniae, ATCC700603, 18 h, read-out: MIC K. pneumoniae ATCC 700603) [µg/mL]	MIC ([3]; Klebsiella pneumoniae, BAA2146, 18 h, read-out: MIC K. pneumoniae BAA 2146) [µg/mL]	MIC ([4]; Pseudomonas aeruginosa, ATTC27853, 18 h, read-out: MIC P. aeruginosa ATTC 27853) [µg/mL]	MIC ([10]; Pseudomonas aeruginosa, FADDIPA070, 18 h, read-out: MIC P. aeruginosa FADDI PA070) [µg/mL]	MIC ([5]; Staphylococcus aureus, ATCC25923, 18 h, read-out: MIC S. aureus ATCC 25923) [µg/mL]
CCCCCCCC(=O)N[C@H](C(=O)N[C@@H](CCN)C(=O)N[C@H]1CCNC(=O)[C@H]([C@@H](C)O)NC(=O)[C@H](CCN)NC(=O)[C@H](CCN)NC(=O)[C@H](CC(C)C)NC(=O)[C@@H](Cc2ccccc2)NC(=O)[C@H](CCN)NC1=O)[C@@H](C)O [Compound 8] (Octanoyl-T[Dab][Dab][Dab][dF]L[Dab][Dab]T; lactam 3-C)	1 (≈ 0.918 µM)	2 (≈ 1.84 µM)	2 (≈ 1.84 µM)	0.5 (≈ 0.459 µM)	>32				209	1 to 2									
CC(C)C[C@@H]1NC(=O)[C@@H](Cc2ccccc2)NC(=O)[C@H](CCN)NC(=O)[C@@H](NC(=O)[C@@H](CCN)NC(=O)[C@@H](NC(=O)c2cccc(-c3ccccc3)c2)[C@@H](C)O)CCNC(=O)[C@H]([C@@H](C)O)NC(=O)[C@H](CCN)NC(=O)[C@H](CCN)NC1=O [Compound 27] ({Benzoyl(3-Ph)}-T[dDab][Dab][Dab][dF]L[Dab][Dab]T; lactam 3-C)	32 (≈ 28 µM)	16 (≈ 14 µM)	8 (≈ 7 µM)	2 (≈ 1.75 µM)	>32	>32	4 (≈ 3.5 µM)	8 (≈ 7 µM)	> 300										
CCCCCCCC(=O)N[C@@H](CC(N)=O)C(=O)N[C@H](CCN)C(=O)N[C@H]1CCNC(=O)[C@H]([C@@H](C)O)NC(=O)[C@H](CCN)NC(=O)[C@H](CCN)NC(=O)[C@H](CC(C)C)NC(=O)[C@@H](Cc2ccccc2)NC(=O)[C@H](CCN)NC1=O [Compound 28] (Octanoyl-N[dDab][Dab][Dab][dF]L[Dab][Dab]T; lactam 3-C)	>32	>32	>32	4 (≈ 3.63 µM)	>32	>32	32 (≈ 29 µM)	8 (≈ 7.26 µM)	> 300										
CCCCCCCC(=O)N[C@@H](Cc1ccc(O)cc1)C(=O)N[C@H](CCN)C(=O)N[C@H]1CCNC(=O)[C@H]([C@@H](C)O)NC(=O)[C@H](CCN)NC(=O)[C@H](CCN)NC(=O)[C@H](CC(C)C)NC(=O)[C@@H](Cc2ccccc2)NC(=O)[C@H](CCN)NC1=O [Compound 29] (Octanoyl-Y[dDab][Dab][Dab][dF]L[Dab][Dab]T; lactam 3-C)	>32	16 (≈ 13.9 µM)	>32	4 (≈ 3.47 µM)	>32	>32	16 (≈ 13.9 µM)	8 (≈ 6.95 µM)	> 300										
CN[C@H](CC(C)C)C(=O)N[C@H]1C(=O)N[C@@H](CC(N)=O)C(=O)N[C@H]2C(=O)N[C@H]3C(=O)N[C@H](C(=O)N[C@H](C(=O)O)c4cc(O)cc(O)c4-c4cc3ccc4O)[C@H](O)c3ccc(c(Cl)c3)Oc3cc2cc(c3O[C@@H]2O[C@H](CO)[C@@H](O)[C@H](O)[C@H]2O[C@H]2C[C@](C)(N)[C@H](O)[C@H](C)O2)Oc2ccc(cc2Cl)[C@H]1O [Vanc, vancomycin, reference compound]									> 300			> 32	> 32	> 32	> 32	> 32	> 32	> 32	2 (≈ 1.38 µM)

More lines, main results first:

MIC K. pneumoniae ATCC 13833 [1] [µg/mL]	MIC K. pneumoniae ATCC 700603 [2] [µg/mL]	MIC K. pneumoniae BAA 2146 [3] [µg/mL]	MIC P. aeruginosa ATTC 27853 [4] [µg/mL]	MIC S. aureus ATCC 25923 [5] [µg/mL]	MIC A. baumannii ATCC 19606 [8] [µg/mL]	MIC E. coli ATCC 25922 [9] [µg/mL]	MIC P. aeruginosa FADDI PA070 [10] [µg/mL]	Structure (SMILES)	CC50 at 24 h [6] [µM]	MIC for most strains [7] [µg/mL]	fold more active than nonapeptide 8 ([7]; MIC comparison against most strains)	MIC ([8]; Acinetobacter baumannii, ATCC19606, 18 h, read-out: MIC A. baumannii ATCC 19606) [µg/mL]	MIC ([9]; Escherichia coli, ATCC25922, 18 h, read-out: MIC E. coli ATCC 25922) [µg/mL]	MIC ([1]; Klebsiella pneumoniae, ATCC13833, 18 h, read-out: MIC K. pneumoniae ATCC 13833) [µg/mL]	MIC ([2]; Klebsiella pneumoniae, ATCC700603, 18 h, read-out: MIC K. pneumoniae ATCC 700603) [µg/mL]	MIC ([3]; Klebsiella pneumoniae, BAA2146, 18 h, read-out: MIC K. pneumoniae BAA 2146) [µg/mL]	MIC ([4]; Pseudomonas aeruginosa, ATTC27853, 18 h, read-out: MIC P. aeruginosa ATTC 27853) [µg/mL]	MIC ([10]; Pseudomonas aeruginosa, FADDIPA070, 18 h, read-out: MIC P. aeruginosa FADDI PA070) [µg/mL]	MIC ([5]; Staphylococcus aureus, ATCC25923, 18 h, read-out: MIC S. aureus ATCC 25923) [µg/mL]
>32	4 (≈ 3.72 µM)	8 (≈ 7.44 µM)	1 (≈ 0.93 µM)	>32	>32	8 (≈ 7.44 µM)	16 (≈ 14.9 µM)	CCCCCCCC(=O)N[C@@H](CO)C(=O)N[C@H](CCN)C(=O)N[C@H]1CCNC(=O)[C@H]([C@@H](C)O)NC(=O)[C@H](CCN)NC(=O)[C@H](CCN)NC(=O)[C@H](CC(C)C)NC(=O)[C@@H](Cc2ccccc2)NC(=O)[C@H](CCN)NC1=O [Compound 30] (Octanoyl-S[dDab][Dab][Dab][dF]L[Dab][Dab]T; lactam 3-C)	> 300										
>32	8 (≈ 7.34 µM)	8 (≈ 7.34 µM)	2 (≈ 1.84 µM)	>32	>32	16 (≈ 14.7 µM)	8 (≈ 7.34 µM)	CCCCCCCC(=O)N[C@@H](CCO)C(=O)N[C@H](CCN)C(=O)N[C@H]1CCNC(=O)[C@H]([C@@H](C)O)NC(=O)[C@H](CCN)NC(=O)[C@H](CCN)NC(=O)[C@H](CC(C)C)NC(=O)[C@@H](Cc2ccccc2)NC(=O)[C@H](CCN)NC1=O [Compound 31] (Octanoyl-[hSer][dDab][Dab][Dab][dF]L[Dab][Dab]T; lactam 3-C)	181										
>32	32 (≈ 28.6 µM)	>32	4 (≈ 3.58 µM)	>32	>32	>32	>32	CCCCCCCC(=O)N[C@@H](CCC(=O)O)C(=O)N[C@H](CCN)C(=O)N[C@H]1CCNC(=O)[C@H]([C@@H](C)O)NC(=O)[C@H](CCN)NC(=O)[C@H](CCN)NC(=O)[C@H](CC(C)C)NC(=O)[C@@H](Cc2ccccc2)NC(=O)[C@H](CCN)NC1=O [Compound 32] (Octanoyl-E[dDab][Dab][Dab][dF]L[Dab][Dab]T; lactam 3-C)	> 300										
>32	32 (≈ 30.6 µM)	>32	1 (≈ 0.957 µM)	>32	>32	16 (≈ 15.3 µM)	>32	CCCCCCCC(=O)NCC(=O)N[C@H](CCN)C(=O)N[C@H]1CCNC(=O)[C@H]([C@@H](C)O)NC(=O)[C@H](CCN)NC(=O)[C@H](CCN)NC(=O)[C@H](CC(C)C)NC(=O)[C@@H](Cc2ccccc2)NC(=O)[C@H](CCN)NC1=O [Compound 33] (Octanoyl-G[dDab][Dab][Dab][dF]L[Dab][Dab]T; lactam 3-C)	262										
>32	32 (≈ 29.7 µM)	16 (≈ 14.9 µM)	16 (≈ 14.9 µM)	>32	>32			CCCCCCCC(=O)N[C@H](C(=O)N[C@@H](CO)C(=O)N[C@H]1CCNC(=O)[C@H]([C@@H](C)O)NC(=O)[C@H](CCN)NC(=O)[C@H](CCN)NC(=O)[C@H](CC(C)C)NC(=O)[C@@H](Cc2ccccc2)NC(=O)[C@H](CCN)NC1=O)[C@@H](C)O [Compound 35] (Octanoyl-TS[Dab][Dab][dF]L[Dab][Dab]T; lactam 3-C)	220	16 to 32									
2 (≈ 1.68 µM)	1 (≈ 0.841 µM)	0.5 (≈ 0.42 µM)	0.5 (≈ 0.42 µM)	>32				CCCCCCCC(=O)N[C@@H](CCN)C(=O)N[C@H](C(=O)N[C@@H](CCN)C(=O)N[C@H]1CCNC(=O)[C@H]([C@@H](C)O)NC(=O)[C@H](CCN)NC(=O)[C@H](CCN)NC(=O)[C@H](CC(C)C)NC(=O)[C@@H](Cc2ccccc2)NC(=O)[C@H](CCN)NC1=O)[C@@H](C)O [PmxB3, polymyxin B3, reference compound] (Octanoyl-[Dab]T[Dab][Dab][Dab][dF]L[Dab][Dab]T; lactam 4-C)	> 300		2- to 4 fold								
